Experiment [1] relates to Huh-7. The experiment in a line: Inhibition of Wnt/beta catenin in human HuH7 cells assessed as decrease in TCF/LEF-dependent promoter activation at 10 uM after 36 hrs by TOPFlash luciferase reporter gene assay relative to control. Type of experiment: cell-based. On the technique in general: A reporter such as luciferase makes a cellular process visible.
Experiment [2] relates to Huh-7. The experiment in a line: Inhibition of Wnt/beta catenin in human HuH7 cells assessed as [3H]-thymidine incorporation at 10 uM by scintillation counting analysis relative to FH535. Type of experiment: cell-based.
In experiment [3] the test system is Huh-7. The experiment in a line: Inhibition of Wnt/beta catenin in human HuH7 cells assessed as [3H]-thymidine incorporation at 10 uM by scintillation counting analysis relative to DMSO-treated control. Type of experiment: cell-based.
Experiment [4] concerns Huh-7. The experiment in a line: Inhibition of Wnt/beta catenin in human HuH7 cells assessed as [3H]-thymidine incorporation at 10 uM by scintillation counting analysis relative to DMSO-treated control; values are per cent of control. On the technique in general: Dividing cells build labelled thymidine or BrdU into new DNA.

The term inhibition denotes the percentage by which the read-out fell short of the control.

Turning to `Cc1cc(CO)ccc1NS(=O)(=O)c1c(Cl)cccc1Cl`, the inhibition came to 13% in the experiment with Huh-7 [1] and 73% in the experiment on Huh-7 [3]. Besides, the fold change (FC) with Huh-7 [2] came out at 2. Further, the level, % of control in the experiment with Huh-7 [4] worked out at 27%.

Take `O=S(=O)(Nc1cccc(OCc2ccccc2)c1)c1ccccc1`: the fold change (FC) in the experiment on Huh-7 [2] came to 0.8. Further, in the experiment on Huh-7 [3], the inhibition was 29%. Further, in the experiment on Huh-7 [4], the level, % of control stood at 71%.

In the case of `Cc1cc(CO)ccc1NS(=O)(=O)c1cc(Cl)ccc1Cl`, in the experiment with Huh-7 [2], the fold change (FC) stood at 1.9. The inhibition in the experiment with Huh-7 [3] came to 67%. Besides, the level, % of control in the experiment with Huh-7 [4] came to 33%.

Regarding `COC(=O)c1cc(Cl)ccc1NS(=O)(=O)c1cc(Cl)ccc1Cl`, the fold change (FC) with Huh-7 [2] turned out to be 0. The inhibition with Huh-7 [3] is 0%. For the same molecule, the level, % of control with Huh-7 [4] worked out at 106%.

On to `O=S(=O)(Nc1ccccc1Oc1ccccc1)c1c(Cl)cccc1Cl`, for which the inhibition stood at 45% in the experiment with Huh-7 [1] and 38% with Huh-7 [3]. Moreover, the fold change (FC) with Huh-7 [2] is 1.1. Also, in the experiment with Huh-7 [4], the level, % of control came to 62%.

For the molecule `Cc1cc(CO)ccc1NS(=O)(=O)c1ccccc1`, in the experiment with Huh-7 [2], the fold change (FC) came to 1.5. In addition, the inhibition in the experiment on Huh-7 [3] is 53%. In addition, the level, % of control with Huh-7 [4] came to 47%.

Regarding `O=[N+]([O-])c1ccc(NS(=O)(=O)c2cc(F)ccc2F)c2ccccc12`, the inhibition came to 64% with Huh-7 [1] and 31% in the experiment on Huh-7 [3]. In addition, in the experiment with Huh-7 [2], the fold change (FC) worked out at 0.9. For the same molecule, in the experiment with Huh-7 [4], the level, % of control stood at 69%.

`Cc1cc(CO)ccc1NS(=O)(=O)c1c(F)cccc1F`: the fold change (FC) with Huh-7 [2] was found to be 1.1. Moreover, the inhibition in the experiment with Huh-7 [3] amounted to 38%. Also, the level, % of control in the experiment on Huh-7 [4] worked out at 62%.

As to `COC(=O)c1ccc(NS(=O)(=O)c2c(Cl)cccc2Cl)c(C)c1`, the fold change (FC) with Huh-7 [2] was 0.8. Further, the inhibition in the experiment with Huh-7 [3] was determined as 29%. For the same molecule, the level, % of control with Huh-7 [4] worked out at 71%.

With `COC(=O)c1ccc(NS(=O)(=O)c2cc(Cl)ccc2Cl)c(C)c1`, in the experiment on Huh-7 [2], the fold change (FC) stood at 0.5. Moreover, the inhibition in the experiment on Huh-7 [3] was 18%. The level, % of control in the experiment with Huh-7 [4] turned out to be 82%.

`O=[N+]([O-])c1ccc(NS(=O)(=O)c2c(Cl)cccc2Cl)c2ccccc12`: the inhibition stood at 47% with Huh-7 [1] and 26% with Huh-7 [3]. Moreover, the fold change (FC) in the experiment with Huh-7 [2] came to 0.7. The level, % of control with Huh-7 [4] was 74%.

Consider `O=C(c1ccccc1)c1ccc(NS(=O)(=O)c2c(Cl)cccc2Cl)cc1`, for which the fold change (FC) in the experiment on Huh-7 [2] was found to be 0.9. For the same molecule, in the experiment on Huh-7 [3], the inhibition is 33%. For the same molecule, the level, % of control in the experiment on Huh-7 [4] came to 67%.

With `Cc1cc([N+](=O)[O-])ccc1NS(=O)(=O)c1cc(Cl)ccc1Cl`, the inhibition in the experiment with Huh-7 [1] was 73%; in the experiment on Huh-7 [3], 36%. In the experiment with Huh-7 [4], the level, % of control is 64%.

On to `O=C(c1ccccc1)c1ccc(NS(=O)(=O)c2ccccc2)cc1`, for which the inhibition came out at 46% in the experiment with Huh-7 [1] and 38% in the experiment on Huh-7 [3]. Further, the fold change (FC) in the experiment on Huh-7 [2] worked out at 1.1. Further, the level, % of control in the experiment with Huh-7 [4] stood at 62%.

With `O=[N+]([O-])c1ccc(NS(=O)(=O)c2ccccc2)c2ccccc12`, the inhibition was 72% in the experiment on Huh-7 [1] and 42% in the experiment on Huh-7 [3]. The fold change (FC) with Huh-7 [2] came to 1.2. In addition, the level, % of control in the experiment with Huh-7 [4] worked out at 58%.

For `O=[N+]([O-])c1ccc(NS(=O)(=O)c2cc(Cl)ccc2Cl)c2ccccc12`, the fold change (FC) with Huh-7 [2] was 1.3. In the experiment on Huh-7 [3], the inhibition amounted to 48%. Besides, in the experiment on Huh-7 [4], the level, % of control amounted to 52%.

As for `O=S(=O)(Nc1cccc(OCc2ccccc2)c1)c1c(F)cccc1F`, the fold change (FC) in the experiment on Huh-7 [2] stood at 1.2. Moreover, the inhibition in the experiment with Huh-7 [3] was 43%. Besides, the level, % of control in the experiment with Huh-7 [4] was determined as 57%.

For `O=S(=O)(Nc1ccccc1Oc1ccccc1)c1c(F)cccc1F`, in the experiment on Huh-7 [2], the fold change (FC) was 0.9. Also, in the experiment on Huh-7 [3], the inhibition turned out to be 34%. Further, the level, % of control in the experiment on Huh-7 [4] was 66%.

As to `O=C(c1ccccc1)c1ccc(NS(=O)(=O)c2c(F)cccc2F)cc1`, in the experiment with Huh-7 [2], the fold change (FC) came to 0.9. Besides, the inhibition in the experiment with Huh-7 [3] was determined as 33%. Besides, the level, % of control in the experiment on Huh-7 [4] was 67%.

For `O=S(=O)(Nc1cccc(OCc2ccccc2)c1)c1c(Cl)cccc1Cl`, the inhibition in the experiment with Huh-7 [1] turned out to be 53%; in the experiment with Huh-7 [3], 31%. For the same molecule, in the experiment on Huh-7 [2], the fold change (FC) was found to be 0.9. The level, % of control in the experiment on Huh-7 [4] turned out to be 69%.

`COC(=O)c1cc(F)ccc1NS(=O)(=O)c1cc(Cl)ccc1Cl`: the figures for the inhibition in the experiment with Huh-7 [1] and in the experiment on Huh-7 [3] were 61% and 7%, respectively. Also, the fold change (FC) with Huh-7 [2] turned out to be 0.2. The level, % of control in the experiment on Huh-7 [4] was determined as 93%.

For the origin of these results see ChEMBL document CHEMBL3608209, “N-Aryl benzenesulfonamide inhibitors of [3H]-thymidine incorporation and β-catenin signaling in human hepatocyte-derived Huh-7 carcinoma cells” (Bioorg Med Chem Lett, 2015).
